Test results from US20150315241A1, “Antibiotic Peptides” (priority 2007, published 2015).
Converted amounts (≈) assume the structure as drawn. Like-named read-outs stand apart in the source and are kept apart here. Where a SMILES comes first, the peptide text is derived from it. [ ]: non-standard residue; d: D form. Hyp = O=C(O)[C@@H]1C[C@@H](O)CN1; Orn = NCCC[C@H](N)C(=O)O

How the values were obtained:
[1] = test system: R. radiobatter ATCC 15955; assay: Growth inhibition assay (MIC); format: cell-based, Rhizobium radiobacter
Method in brief: (§1)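 MIC by growth inhibition: overnight NB culture → 5×10^6 CFU/mL in 1% TSB; peptide 2-fold series, final 125 μg/mL to 60 ng/mL; 37° C., 20 hrs; OD595. n=3.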

[2] = test system: S. enterica subsp. Enterica serovar. typhi G10215 ATCC 700408; format: cell-based, Salmonella enterica; details: ATCC 700408, 20 h
Method in brief: as §1

E. coli DC 2 = assay: Growth inhibition assay (MIC); format: cell-based, Escherichia coli; details: 1% TSB, 37° C., 20 hrs
Method in brief: (§2)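 Bacteria grown overnight in NB at 37° C. were adjusted to 5×10^6 CFU/mL in 1% TSB and mixed 1:1 with a two-fold peptide series (final 125 μg/mL–60 ng/mL). After 20 hrs at 37° C., A595 was read; triplicates.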

E. coli BL 21 AI = assay: Growth inhibition assay (MIC); format: cell-based, Escherichia coli; details: 1% TSB, 37° C., 20 hrs
Method in brief: as §2

E. coli 1103 = format: cell-based, Escherichia coli
Method in brief: as §2

E. coli 10233 = format: cell-based, Escherichia coli
Method in brief: as §2

S. typhi S5 = format: cell-based, Salmonella typhi; details: S5, 20 h
Method in brief: as §1

B. subtilis 347 = format: cell-based, Bactillus subtillis
Method in brief: as §2

E. coli 45849 = assay: Growth inhibition assay (MIC); format: cell-based, Escherichia coli
Method in brief: as §1

M. luteus ATCC 10240 = format: cell-based, Micrococcus luteus
Method in brief: as §2

K. Pneumonia 123132 = assay: Growth inhibition assay (MIC); format: cell-based, Klebsiella pneumoniae
Method in brief: as §1

[3] = test system: K. Pneumonia K6, ATCC 700603; assay: Growth inhibition assay (MIC); format: cell-based, Klebsiella pneumoniae; details: multidrug resistant strain; 1% TSB, 37° C., 20 hrs
Method in brief: as §1

Mycobacterium vaccae = format: cell-based
Method: The minimal inhibition concentrations (MIC) of the apidaecin-derived peptides and peptide-derivatives were determined by a growth inhibition assay using a serial peptide dilution in sterilized round-bottom 96-well plates (polystyrene, U-bottom, Greiner Bio-One GmbH) with a final volume of 100 μL per well. The bacteria, e.g., E. coli BL21 A1, were grown in nutrient broth (NB, Carl Roth GmbH+Co. KG, Karlsruhe, Germany) at 37° C. over night. To each well of the 96-well plate, 50 μL of the overnight culture adjusted to 5×10^6 CFU/mL in 1% TSB were added. Lyophilized peptides and peptidomimetics were dissolved in 1% TSB (tryptic soy broth) or water to give a final concentration of 250 μg/mL. Fifty μL of the peptide or peptidomimetics solution were added to the first well of a row on the plate and mixed. Fifty μL of the first well containing the peptide solution were transferred to the second well, mixed and again 50 μL transferred to the next well and so on. Thereby, a two-fold dilution series was obtained starting at 250 μg/mL in the first well down to 120 ng/mL in the 12th well of a row giving a final peptide or peptidomimetics concentration from 125 μg/mL (well 1) to 60 ng/mL (well 12). Plates were incubated at 37° C. for 20 hrs. The absorbance was measured at 595 nm using a TECAN micro plate spectrophotometer (Tecan, Germany). All peptides and peptidomimetics were measured in triplicates. Sterilized water was used as a negative control.
The bacteria strains were tested: • Eschericha coli 1103, 10233, BL 21 AI, DC 2, • Klebsiella pneumoniae 681, • Micrococcus luteus ATCC 10240, • Mycobacterium vaccae • Bactillus subtillis 347.

K. pneumonia 681 = format: cell-based, Klebsiella pneumoniae
Method in brief: as §2

E. coli D31 = format: cell-based, Escherichia coli; details: D31, 20 h
Method in brief: as §1

[4] = multidrug resistant strain, 1% TSB, 37° C., 20 hrs

For `CC[C@H](C)[C@H](NC(=O)[C@H](Cc1ccc(O)cc1)NC(=O)[C@@H](NC(=O)[C@@H]1CCCN1C(=O)[C@H](CCCNC(=N)N)NC(=O)[C@H](CC(N)=O)NC(=O)[C@H](CC(N)=O)NC(=O)CN)C(C)C)C(=O)N1CCC[C@H]1C(=O)N[C@@H](CCCN)C(=O)N1C[C@H](O)C[C@H]1C(=O)N[C@@H](CCCNC(=N)N)C(=O)N1CCC[C@H]1C(=O)N1CCC[C@H]1C(=O)N[C@@H](Cc1c[nH]cn1)C(=O)N1CCC[C@H]1C(=O)N[C@@H](CCCNC(=N)N)C(=O)N[C@@H](CC(C)C)C(N)=O` [compound 11] (H-GNNRPVYIP[Orn][Hyp]RPPHPRL-NH2), the “MIC R. radiobatter ATCC 15955” value ([1]; ATCC 15955, 20 h) was under 0.16 µg/mL, the “MIC S. enterica subsp. Enterica serovar. typhi G10215 ATCC 700408” value [2] was under 0.25 µg/mL and the “MIC E. coli DC 2” value (E. coli DC 2) was 0.98 µg/mL (≈ 0.465 µM). For the same molecule, the “MIC E. coli BL 21 AI” value (E. coli BL 21 AI) was 0.49 µg/mL (≈ 0.232 µM), the “MIC E. coli 1103” value (E. coli 1103; 1% TSB, 37° C., 20 hrs) was 3.9 µg/mL (≈ 1.85 µM) and the “MIC E. coli 10233” value (E. coli 10233; 1% TSB, 37° C., 20 hrs) was 3.91 µg/mL (≈ 1.85 µM). The “MIC S. typhi S5” value (S. typhi S5) was under 0.5 µg/mL, the “MIC B. subtilis 347” value (B. subtilis 347; 1% TSB, 37° C., 20 hrs) was 125 µg/mL (≈ 59.3 µM) and the “MIC E. coli 45849” value (E. coli 45849; 45849, 20 h) was 1 µg/mL (≈ 0.474 µM). The “MIC M. luteus ATCC 10240” value (M. luteus ATCC 10240; 1% TSB, 37° C., 20 hrs) was 1.95 µg/mL (≈ 0.924 µM), the “MIC K. Pneumonia 123132” value (K. Pneumonia 123132; 20 h) was 8 µg/mL (≈ 3.79 µM) and the “MIC K. Pneumonia K6, ATCC 700603” value [3] was 8 µg/mL (≈ 3.79 µM). For the same molecule, the “MIC Mycobacterium vaccae” value (Mycobacterium vaccae; 1% TSB, 37° C., 20 hrs) was 125 µg/mL (≈ 59.3 µM), the “MIC K. pneumonia 681” value (K. pneumonia 681; 1% TSB, 37° C., 20 hrs) was 1.95 µg/mL (≈ 0.924 µM) and the “MIC E. coli D31” value (E. coli D31) was 8 µg/mL (≈ 3.79 µM).

For `CC[C@H](C)[C@H](NC(=O)[C@H](Cc1ccc(O)cc1)NC(=O)[C@@H](NC(=O)[C@@H]1CCCN1C(=O)[C@H](CCCNC(=N)N)NC(=O)[C@H](CC(N)=O)NC(=O)[C@H](CC(N)=O)NC(=O)[C@@H](N)CCCN)C(C)C)C(=O)N1CCC[C@H]1C(=O)N[C@@H](CCCNC(=N)N)C(=O)N1CCC[C@H]1C(=O)N[C@@H](CCCNC(=N)N)C(=O)N1CCC[C@H]1C(=O)N1CCC[C@H]1C(=O)N[C@@H](Cc1c[nH]cn1)C(=O)N1CCC[C@H]1C(=O)N[C@@H](CCCNC(=N)N)C(=O)N[C@@H](CC(C)C)C(N)=O` [compound 38] (H-[Orn]NNRPVYIPRPRPPHPRL-NH2), the “MIC R. radiobatter ATCC 15955” value [1, 4] was 1.3 µg/mL (≈ 0.593 µM), the “MIC S. enterica subsp. Enterica serovar. typhi G10215 ATCC 700408” value [2] was 2 µg/mL (≈ 0.912 µM) and the “MIC E. coli DC 2” value (E. coli DC 2) was 0.98 µg/mL (≈ 0.447 µM). For the same molecule, the “MIC E. coli BL 21 AI” value (E. coli BL 21 AI) was 1.95 µg/mL (≈ 0.889 µM), the “MIC E. coli 1103” value (E. coli 1103; 1103, 20 h) was 3.91 µg/mL (≈ 1.78 µM) and the “MIC E. coli 10233” value (E. coli 10233; 10233, 20 h) was 1.95 µg/mL (≈ 0.889 µM). The “MIC S. typhi S5” value (S. typhi S5) was under 0.5 µg/mL, the “MIC B. subtilis 347” value (B. subtilis 347; 347, 20 h) was 62.5 µg/mL (≈ 28.5 µM) and the “MIC E. coli 45849” value (E. coli 45849; [4]) was 0.5 µg/mL (≈ 0.228 µM). For the same molecule, the “MIC M. luteus ATCC 10240” value (M. luteus ATCC 10240; ATCC 10240, 20 h) was 1.95 µg/mL (≈ 0.889 µM), the “MIC K. Pneumonia 123132” value (K. Pneumonia 123132; [4]) was 2 µg/mL (≈ 0.912 µM) and the “MIC K. Pneumonia K6, ATCC 700603” value [3] was 4 µg/mL (≈ 1.82 µM). The “MIC Mycobacterium vaccae” value (Mycobacterium vaccae; 20 h) was 125 µg/mL (≈ 57 µM), the “MIC K. pneumonia 681” value (K. pneumonia 681; 20 h) was 1.95 µg/mL (≈ 0.889 µM) and the “MIC E. coli D31” value (E. coli D31) was 2 µg/mL (≈ 0.912 µM).
